Results: patent US11020398B2, “Amino-pyrrolopyrimidinone compounds and methods of use thereof” (ArQule, Inc., priority 2016, dated 2021)

Columns and labels:
[1] = molecular target: full-length activated BTK mutant C481S (Homo sapiens (Human), UniProt Q06187, C481S); assay: AlphaScreen assay, BTK mutant C481S; format: biochemical
Procedure: (§1) The activated BTK was frozen in 50 μl aliquots (125-150 μg/ml).
(§2) BTK activity was assayed using a PLCγ2-derived biotinylated peptide substrate (biotin-[…]-OH) and AlphaScreen™ (Amplified Luminescent Proximity Homogeneous Assay) technology. The extent of peptide phosphorylation was determined by using acceptor beads conjugated to phosphotyrosine antibody that recognized the phosphorylated peptide and donor beads conjugated to streptavidin that binds to the biotin on the peptide. Excitation of the donor beads converted ambient oxygen to excited singlet oxygen which when in close proximity to acceptor beads, reacted with acceptor beads resulting in signal amplification.
(§3) Test inhibitors and controls were prepared in 10% DMSO at 10-fold the desired final concentration and added to each well of a reaction plate (Corning 96-well half-area solid white nonbinding surface plate) in a volume of 2.5 μl. […] The plate was incubated for 120 min at room temperature and the reaction stopped by the addition of 10 μl stop/detection mixture containing 35 mM EDTA, 50 ug/ml AlphaScreen™ Streptavidin Donor beads (final concentration is 500 ng/well) and AlphaScreen™ Phospho-tyrosine (P-Tyr-100) Acceptor beads (final concentration is 500 ng/well) under green light conditions. The plate was incubated overnight at room temperature in the dark and the plates read on the BMG PolarStar Omega ([…], Gain=4000). Data were archived and analyzed with a 4-parameter fit to generate IC50 values using the CDD Vault from Collaborative Drug Discovery.

[2] = molecular target: full-length activated BTK (wildtype) (Homo sapiens (Human), UniProt Q06187); assay: AlphaScreen assay, wild-type BTK; format: biochemical
full-length activated BTK (wildtype), sequence (Q06187 whole entry): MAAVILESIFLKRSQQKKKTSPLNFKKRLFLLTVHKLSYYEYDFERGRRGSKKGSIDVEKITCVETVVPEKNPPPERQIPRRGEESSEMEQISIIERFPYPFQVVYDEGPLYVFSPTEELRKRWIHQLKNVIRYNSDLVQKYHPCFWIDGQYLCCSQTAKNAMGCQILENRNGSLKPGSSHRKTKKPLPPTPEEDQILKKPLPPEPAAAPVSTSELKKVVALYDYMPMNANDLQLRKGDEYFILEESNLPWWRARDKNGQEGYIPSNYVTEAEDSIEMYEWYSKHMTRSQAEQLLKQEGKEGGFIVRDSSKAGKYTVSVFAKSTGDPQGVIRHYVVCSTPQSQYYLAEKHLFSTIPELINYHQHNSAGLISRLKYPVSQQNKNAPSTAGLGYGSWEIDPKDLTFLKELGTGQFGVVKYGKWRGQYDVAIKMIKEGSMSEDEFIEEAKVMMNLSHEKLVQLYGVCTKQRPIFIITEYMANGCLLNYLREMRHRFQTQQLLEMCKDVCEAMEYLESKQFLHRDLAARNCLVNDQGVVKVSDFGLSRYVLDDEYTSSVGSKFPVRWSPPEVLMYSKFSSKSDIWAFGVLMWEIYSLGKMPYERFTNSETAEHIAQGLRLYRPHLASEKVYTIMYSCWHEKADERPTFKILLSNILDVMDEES
Procedure: as §1, §2, §3

full-length activated BTK mutant C481S, sequence (Q06187 whole entry C481S): as the sequence (Q06187 whole entry) above, with C481S counted along it

Row | SMILES | IC50 [1] [nM] | IC50 [2] [nM] | inhibition at 10 µM ([1]; read-out: BTK-C481S % @ 10 uM, @ 10 uM) [%]
1 | O=C(Nc1ccccc1)c1cccc(C(=O)c2c[nH]c3ncnc(N[C@@H]4CC[C@@H](CO)OC4)c23)c1 [Compound I-634, 3-(4-(((3R,6S)-6-(hydroxymethyl)tetrahydro-2H-pyran-3-yl)amino)-7H-pyrrolo[2,3-d]pyrimidine-5-carbonyl)-N-phenylbenzamide] | 690 | 620 | 
2 | O=C(Nc1ccccc1)Nc1ccc(Cl)c(C(=O)c2c[nH]c3ncnc(N[C@@H]4CC[C@@H](CO)OC4)c23)c1 [Compound I-608, 1-(4-chloro-3-(4-(((3R,6S)-6-(hydroxymethyl)tetrahydro-2H-pyran-3-yl)amino)-7H-pyrrolo[2,3-d]pyrimidine-5-carbonyl)phenyl)-3-phenylurea] | 187 | 8.19 | 
3 | Cn1cc(NC(=O)c2ccc(C(=O)c3c[nH]c4ncnc(N[C@@H]5CC[C@@H](CO)OC5)c34)c(Cl)c2)cn1 [Compound I-619, 3-chloro-4-(4-(((3R,6S)-6-(hydroxymethyl)tetrahydro-2H-pyran-3-yl)amino)-7H-pyrrolo[2,3-d]pyrimidine-5-carbonyl)-N-(1-methyl-1H-pyrazol-4-yl)benzamide] | 942 | 376 | 
4 | O=C(c1ccc(NC(=O)C2(c3ccccc3)CC2)cc1Cl)c1c[nH]c2ncnc(N[C@@H]3CC[C@@H](CO)OC3)c12 [Compound I-640, N-(3-chloro-4-(4-(((3R,6S)-6-(hydroxymethyl)tetrahydro-2H-pyran-3-yl)amino)-7H-pyrrolo[2,3-d]pyrimidine-5-carbonyl)phenyl)-1-phenylcyclopropane-1-carboxamide] | 203 | 69.5 | 
5 | COCC(=O)Nc1cccc(C(=O)c2c[nH]c3ncnc(N[C@@H]4CC[C@@H](CO)OC4)c23)c1 [Compound I-645, N-(3-(4-(((3R,6S)-6-(hydroxymethyl)tetrahydro-2H-pyran-3-yl)amino)-7H-pyrrolo[2,3-d]pyrimidine-5-carbonyl)phenyl)-2-methoxyacetamide] |  | 743 | 81
6 | O=C(Nc1ccccc1)c1ccc(C(=O)c2c[nH]c3ncnc(N[C@@H]4CC[C@@H](CO)OC4)c23)c(Cl)c1 [Compound I-236, 3-chloro-4-(4-(((3R,6S)-6-(hydroxymethyl)tetrahydro-2H-pyran-3-yl)amino)-7H-pyrrolo[2,3-d]pyrimidine-5-carbonyl)-N-phenylbenzamide] | 98.4 | 181 | 
7 | O=C(c1ccc(C(=O)N2CCN(c3ccccn3)CC2)cc1Cl)c1c[nH]c2ncnc(N[C@@H]3CC[C@@H](CO)OC3)c12 [Compound I-616, (3-chloro-4-(4-(((3R,6S)-6-(hydroxymethyl)tetrahydro-2H-pyran-3-yl)amino)-7H-pyrrolo[2,3-d]pyrimidine-5-carbonyl)phenyl)(4-(pyridin-2-yl)piperazin-1-yl)methanone] | 506 | 116 | 
8 | O=C(Cc1ccccc1)Nc1ccc(Cl)c(C(=O)c2c[nH]c3ncnc(N[C@@H]4CC[C@@H](CO)OC4)c23)c1 [Compound I-602, N-(4-chloro-3-(4-(((3R,6S)-6-(hydroxymethyl)tetrahydro-2H-pyran-3-yl)amino)-7H-pyrrolo[2,3-d]pyrimidine-5-carbonyl)phenyl)-2-phenylacetamide] | 317 | 140 | 
9 | O=C(COCc1ccccc1)Nc1ccc(C(=O)c2c[nH]c3ncnc(N[C@@H]4CC[C@@H](CO)OC4)c23)c(Cl)c1 [Compound I-641, 2-(benzyloxy)-N-(3-chloro-4-(4-(((3R,6S)-6-(hydroxymethyl)tetrahydro-2H-pyran-3-yl)amino)-7H-pyrrolo[2,3-d]pyrimidine-5-carbonyl)phenyl) acetamide] | 32.6 | 8.28 | 
10 | COCCOc1ccc(Cl)c(C(=O)c2c[nH]c3ncnc(N[C@@H]4CC[C@@H](CO)OC4)c23)c1 [Compound I-648, (2-chloro-5-(2-methoxyethoxy)phenyl)(4-(((3R,6S)-6-(hydroxymethyl)tetrahydro-2H-pyran-3-yl)amino)-7H-pyrrolo[2,3-d]pyrimidin-5-yl)methanone] | 810 | 731 | 
